# In patent publication US20070225363A1, “Methods and Agents for Inhibiting Dynamin-Dependent Endocytosis” (the University of Newcastle Research Associates Ltd., priority 2003, published 2007):
# “Also recorded” adds a separate entry of the source.
# Legend:
# [1] = target: dynamin I (Ovis aries, UniProt A0ACI6NZN1); test: [α-32P]-GTP binding assay, dynamin I; set-up: species or system sheep
# Description: The [α-^32P]-GTP-binding assay was performed in the wells of a 96-well microtitre plate. Dynamin (0.2 μg/well) was added to GTPase buffer and incubated for 10 min at 4 C in the dark. [α-^32P]-GTP (2 μCi/tube) was then added to the reaction and incubated for a further 10 min at 4 C. in the dark. The microtitre plate was then irradiated with a short wavelength ultraviolet lamp at […] for 30 min at a distance of 8 cm. The specificity of photolabelling was determined by comparing the labelling in the presence and absence of 1 mM cold GTP. Samples were then applied to nitrocellulose membranes by aspiration through the wells of a 24 well slot blotter. The nitrocellulose was washed 3 times with PBS and dried. Bound nucleotide was detected by a phosphorimager (Molecular Dynamics).
# [2] = test system: Ras; test: [α-32P]-GTP binding to small G protein Ras; details: data not shown
# Description: (§1) Competition of these drugs with GTP for the active site of 4 small G proteins (Rab3A, Ras, Arf2, RalA) was also tested.
# [3] = test system: Arf2; test: [α-32P]-GTP binding to small G protein Arf2; details: data not shown
# Description: as §1
# [4] = test system: isolated nerve terminals (synaptosomes); test: Glutamate release assay (exocytosis) in synaptosomes; format: cell-based, rat; details: 30 mM KCl
# Description: The glutamate release assay was performed using enzyme-linked fluorescent detection of released glutamate (Cousin and Robinson., 2000a, b). Briefly, synaptosomes (0.6 mg in 2 ml) were resuspended in either plus (1.2 mM CaCl2) or minus (1 mM EGTA) Ca^2+ Krebs-like solution (118.5 mM NaCl, 4.7 mM KCl, 1.18 mM MgCl2, 0.1 mM Na2HPO4, 20 mM Hepes, 10 mM glucose, pH 7.4) at 37° C. Experiments were started after addition of 1 mM NADP^+. After 1 minute 50 U of glutamate dehydrogenase was added and the synaptosome suspension was stimulated after 4 minutes with 30 mM KCl. Increases in fluorescence due to production of NADPH were monitored in a Perkin-Elmer LS-50B spectrofluorimeter at 340 nm excitation and 460 nm emission. Experiments were standardised by the addition of 4 nmol of glutamate. Data is presented as Ca^2+-dependent glutamate release, calculated as the difference between release in plus and minus Ca^2+ solution for identical stimulation conditions.
# [5] = test system: isolated rat brain nerve terminals (synaptosomes); test: Electron microscopy of synaptosomes; format: cell-based; details: 100 μM
# Description: Synaptosomes were incubated for 5 min in Krebs-like solution containing 1.2 mM Ca^2+ then stimulated with 30 mM KCl for 2 minutes. […] After stimulation, synaptosomes were pelleted in a microfuge for 1 minute at room temperature then fixed by gentle resuspension in ice-cold phosphate buffered saline supplemented with 5% glutaraldehyde. After 1 hr they were centrifuged at low speed (2500 rpm) for 5 min at room temperature to loosely pellet the synaptosomes. The pellets were washed gently 3 times with MOPs buffer with low spins (2500 rpm) for 7 minutes then gently resuspended in a 10% bourine serum albumin (BSA) in water and allowed to stand for 20 min at room temperature. The synaptosomes were then centrifuged again for 7 minutes at low speed (2500 rpm), overlaid with Karnovsky's fixative and incubated at 4° C. overnight. The pellets were subsequently rinsed and fixed in a buffered solution of osmium tetroxide for 3 hours. Synaptosomes were then rinsed and stained for 1 hour in 2% aqueous uranyl acetate prior to being dried by a series of sequential 10 minute washes: 50% ethanol plus 0.1% NaCl, 70% ethanol plus 0.1% NaCl, 95% ethanol plus 0.1% NaCl, 100% ethanol plus 0.1% NaCl twice and 100% acetone twice. […]
# [6] = test system: Swiss 3T3 cells; test: Texas Red-transferrin uptake in Swiss 3T3 cells; format: cell-based; details: drug added 15 or 60 minutes before Tf-TxR
# Description: Transferrin (Tf) uptake was analysed in Swiss 3T3 and HER14 cells based on methods previously described (van der Bliek et al., 1993). Briefly, cells were plated to 60% confluency in DMEM medium plus 10% foetal calf serum after which the cells were incubated overnight (8-10 hours) in DMEM minus foetal calf serum. Texas red-transferrin (Tf-TxR, Molecular Probes, Oregon) was added to a final concentration of 5 μg/ml and the cells incubated at 37° C. for 10 minutes. Cell surface staining was removed by incubating the cells in an ice cold acid wash solution (0.2 M acetic acid +0.5 M NaCl, pH 2.8) for 15 minutes. Cells were immediately fixed with 4% paraformaldehyde for 10 minutes then washed 3 times with PBS. Nuclei were stained using DAPI (Molecular Probes, Oregon). Slides were mounted using DABCO and the fluorescence was monitored using a Leica DMLB bright field microscope and SPOT digital camera.
# Chain of dynamin I (A0ACI6NZN1 entry or part of it): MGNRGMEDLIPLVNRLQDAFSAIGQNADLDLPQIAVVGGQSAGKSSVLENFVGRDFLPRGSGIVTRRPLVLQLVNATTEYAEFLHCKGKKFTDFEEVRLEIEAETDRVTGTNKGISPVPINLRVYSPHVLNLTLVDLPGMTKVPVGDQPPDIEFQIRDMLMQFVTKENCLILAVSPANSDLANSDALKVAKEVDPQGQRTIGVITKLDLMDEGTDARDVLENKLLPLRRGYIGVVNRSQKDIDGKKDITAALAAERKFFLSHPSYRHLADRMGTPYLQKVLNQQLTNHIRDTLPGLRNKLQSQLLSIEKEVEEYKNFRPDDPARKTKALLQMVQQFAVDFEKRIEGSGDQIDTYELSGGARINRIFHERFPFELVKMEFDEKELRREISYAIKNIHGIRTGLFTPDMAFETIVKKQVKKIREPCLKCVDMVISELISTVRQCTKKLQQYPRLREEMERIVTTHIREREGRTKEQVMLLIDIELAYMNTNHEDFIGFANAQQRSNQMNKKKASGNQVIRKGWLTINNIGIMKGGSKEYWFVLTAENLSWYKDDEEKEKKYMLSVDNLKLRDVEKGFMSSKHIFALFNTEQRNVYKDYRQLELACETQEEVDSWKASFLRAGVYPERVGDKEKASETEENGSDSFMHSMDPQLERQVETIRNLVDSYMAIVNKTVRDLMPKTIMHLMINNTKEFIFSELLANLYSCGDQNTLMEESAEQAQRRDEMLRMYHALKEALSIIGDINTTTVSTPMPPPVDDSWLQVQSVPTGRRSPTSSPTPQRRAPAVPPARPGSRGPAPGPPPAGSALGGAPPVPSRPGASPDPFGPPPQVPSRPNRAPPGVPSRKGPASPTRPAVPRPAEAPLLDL
compound,measurement,setting,value
N#C/C(=C\c1ccc(O)c(O)c1)C(=O)NCCCNC(=O)/C(C#N)=C/c1ccc(O)c(O)c1 [bis-tyrphostin],[α-32P]-GTP binding to dynamin I in the presence of drug,[1],not seen to decrease; also recorded: not affected
same,effect on [α-32P]-GTP binding to Ras,[2],neither drug affected
same,effect on [α-32P]-GTP binding to Arf2,[3],neither drug affected
same,exocytosis (Ca2+-dependent glutamate release),[4],no effect
same,morphology of depolarised synaptosomes,[5]; depolarised with KCl,massive depletion of synaptic vesicles
same,morphology of unstimulated synaptosomes,[5]; unstimulated,no effect on their morphology
same,internalisation of texas-red labelled transferrin into Swiss 3T3 cells,[6],very large decrease in transferrin staining; also recorded: inhibited
